Measured values taken from PubChem BioAssay AID1963985 (Molecular Pharmacology Branch, DTP, NCI, 2024).
Where “and” joins values, the source holds several entries; their conditions need not be identical. Identical values can stand only once.

Test system: 252836-082-R-J2-PDC tumor spheroids, viability
Assay: Anticancer human tumor 252836-082-R-J2-PDC patient-derived head and neck squamous cell carcinoma cell line growth inhibition [PI3K]
Details: spheroids with HUVEC and MSC; for IC50: curve of first compound; for viability, T/C: stronger effect = lower value; active = viability on the fitted dose curve at most 10% of control; inactive = the rest
Summary of the method: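 Spheroid viability read-out. Co-cultures contained the tumor line plus HUVEC and human MSCs. Each agent was paired with a PI3K inhibitor (inavolisib, alpelisib, duvelisib, copanlisib) across half-log dilutions starting at clinical Cmax, or at 10 microM when Cmax was unknown.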

[1] = second compound 0.0316 µM, first compound 0.0316 µM
[2] = second compound 0.0316 µM, first compound 0.1 µM
[3] = second compound 0.0316 µM, first compound 0.316 µM
[4] = second compound 0.0316 µM, first compound 1 µM
[5] = second compound 0.1 µM, first compound 0.0316 µM
[6] = second compound 0.1 µM, first compound 0.1 µM
[7] = second compound 0.1 µM, first compound 0.316 µM
[8] = second compound 0.1 µM, first compound 1 µM
[9] = second compound 0.316 µM, first compound 0.0316 µM
[10] = second compound 0.316 µM, first compound 0.1 µM
[11] = second compound 0.316 µM, first compound 0.316 µM
[12] = second compound 0.316 µM, first compound 1 µM
[13] = second compound 1 µM, first compound 0.0316 µM
[14] = second compound 1 µM, first compound 0.1 µM
[15] = second compound 1 µM, first compound 0.316 µM
[16] = second compound 1 µM, first compound 1 µM
[17] = second compound 0.0316 µM, first compound 3.16 µM
[18] = second compound 0.0316 µM, first compound 10 µM
[19] = second compound 0.1 µM, first compound 3.16 µM
[20] = second compound 0.1 µM, first compound 10 µM
[21] = second compound 0.316 µM, first compound 3.16 µM
[22] = second compound 0.316 µM, first compound 10 µM
[23] = second compound 1 µM, first compound 3.16 µM
[24] = second compound 1 µM, first compound 10 µM
[25] = second compound 3.16 µM, first compound 0.0316 µM
[26] = second compound 3.16 µM, first compound 0.1 µM
[27] = second compound 3.16 µM, first compound 0.316 µM
[28] = second compound 3.16 µM, first compound 1 µM
[29] = second compound 3.16 µM, first compound 3.16 µM
[30] = second compound 3.16 µM, first compound 10 µM
[31] = second compound 10 µM, first compound 0.0316 µM
[32] = second compound 10 µM, first compound 0.1 µM
[33] = second compound 10 µM, first compound 0.316 µM
[34] = second compound 10 µM, first compound 1 µM
[35] = second compound 10 µM, first compound 3.16 µM
[36] = second compound 10 µM, first compound 10 µM
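Note: spheroids exposed to agents for seven days before readout.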
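Throughout, for viability, T/C: percent of vehicle DMSO control viability so 100% = untreated growth.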

CCN1CCN(Cc2ccc(Nc3ncc(F)c(-c4cc(F)c5nc(C)n(C(C)C)c5c4)n3)nc2)CC1 + COc1c(OCCCN2CCOCC2)ccc2c3n(c(=NC(=O)c4cnc(N)nc4)nc12)CCN3
< 0.00316 µM: IC50 (second compound 0.1 µM) | IC50 (second compound 0.316 µM) | IC50 (second compound 1 µM)
active: viability, T/C (second compound 1 µM, first compound 0.00316 µM) 4.92% | viability, T/C (second compound 1 µM, first compound 0.01 µM) 3.69% | viability, T/C [13] 3.43% | viability, T/C [14] 4.13% | viability, T/C [15] 5.78% | viability, T/C [16] 8.31%
> 1 µM: IC50 (second compound 0.00316 µM) | IC50 (second compound 0.01 µM) | IC50 (second compound 0.0316 µM)
inactive: viability, T/C (second compound 0.00316 µM, first compound 0.00316 µM) 86.4% | viability, T/C (second compound 0.00316 µM, first compound 0.01 µM) 80.1% | viability, T/C (second compound 0.00316 µM, first compound 0.0316 µM) 97.1% | viability, T/C (second compound 0.00316 µM, first compound 0.1 µM) 85.4% | viability, T/C (second compound 0.00316 µM, first compound 0.316 µM) 91.6% | viability, T/C (second compound 0.00316 µM, first compound 1 µM) 82.6% | viability, T/C (second compound 0.01 µM, first compound 0.00316 µM) 75.8% | viability, T/C (second compound 0.01 µM, first compound 0.01 µM) 75.2% | viability, T/C (second compound 0.01 µM, first compound 0.0316 µM) 82.5% | viability, T/C (second compound 0.01 µM, first compound 0.1 µM) 80.8% | viability, T/C (second compound 0.01 µM, first compound 0.316 µM) 72.6% | viability, T/C (second compound 0.01 µM, first compound 1 µM) 78% | viability, T/C (second compound 0.0316 µM, first compound 0.00316 µM) 56.2% | viability, T/C (second compound 0.0316 µM, first compound 0.01 µM) 59% | viability, T/C [1] 55.4% | viability, T/C [2] 57% | viability, T/C [3] 55.5% | viability, T/C [4] 47% | viability, T/C (second compound 0.1 µM, first compound 0.00316 µM) 34.6% | viability, T/C (second compound 0.1 µM, first compound 0.01 µM) 34.9% | viability, T/C [5] 31.2% | viability, T/C [6] 29.7% | viability, T/C [7] 33.9% | viability, T/C [8] 32.4% | viability, T/C (second compound 0.316 µM, first compound 0.00316 µM) 14.1% | viability, T/C (second compound 0.316 µM, first compound 0.01 µM) 15.2% | viability, T/C [9] 12.4% | viability, T/C [10] 13.1% | viability, T/C [11] 17.7% | viability, T/C [12] 14.9%

Cn1cnc2c(F)c(Nc3ccc(Br)cc3Cl)c(C(=O)NOCCO)cc21
inactive: viability, T/C (compound 0.00949 µM) 80.3% and 86.2% (2×) and 89.4% | viability, T/C (compound 0.03 µM) 93.8% [middle of 4 runs] | viability, T/C (compound 0.0949 µM) 81.6% [middle of 4 runs] | viability, T/C (compound 0.3 µM) 86.9% [middle of 4 runs] | viability, T/C (compound 0.949 µM) 72.7% [middle of 4 runs] | viability, T/C (compound 3 µM) 49.5% [middle of 4 runs]

CCCS(=O)(=O)Nc1ccc(F)c(C(=O)c2c[nH]c3ncc(-c4ccc(Cl)cc4)cc23)c1F + CC(Nc1ncnc2nc[nH]c12)c1cc2cccc(Cl)c2c(=O)n1-c1ccccc1
inactive: viability, T/C [1] 101% | viability, T/C [2] 93.7% | viability, T/C [3] 109% | viability, T/C [4] 92.9% | viability, T/C [17] 78.7% | viability, T/C [5] 99.6% | viability, T/C [6] 92.9% | viability, T/C [7] 109% | viability, T/C [8] 91.9% | viability, T/C [19] 88.6% | viability, T/C [9] 98.8% | viability, T/C [10] 84% | viability, T/C [11] 82.7% | viability, T/C [12] 90.4% | viability, T/C [21] 83.1% | viability, T/C [13] 89.2% | viability, T/C [14] 90.2% | viability, T/C [15] 95.6% | viability, T/C [16] 104% | viability, T/C [23] 76.5% | viability, T/C [25] 86.7% | viability, T/C [26] 87.5% | viability, T/C [27] 88.4% | viability, T/C [28] 91.5% | viability, T/C [29] 72.7% | viability, T/C [30] 11.2% | viability, T/C [31] 71.7% | viability, T/C [32] 73.2% | viability, T/C [33] 68.4% | viability, T/C [34] 65% | viability, T/C [35] 62.3% | viability, T/C [36] 10.3%
5.5 µM: IC50 (second compound 0.1 µM)
5.32 µM: IC50 (second compound 0.316 µM)
5.06 µM: IC50 (second compound 0.0316 µM)
active: viability, T/C [18] 8.82% | viability, T/C [20] 8.07% | viability, T/C [22] 9.77% | viability, T/C [24] 7.1%
4.83 µM: IC50 (second compound 3.16 µM)
4.9 µM: IC50 (second compound 1 µM)
4.09 µM: IC50 (second compound 10 µM)

CC1(C)CCC(CN2CCN(c3ccc(C(=O)NS(=O)(=O)c4ccc(NCC5CCOCC5)c([N+](=O)[O-])c4)c(Oc4cnc5[nH]ccc5c4)c3)CC2)=C(c2ccc(Cl)cc2)C1
inactive: viability, T/C (compound 0.0316 µM) 97.7% [middle of 4 runs] | viability, T/C (compound 0.1 µM) 99.2% [middle of 4 runs] | viability, T/C (compound 0.316 µM) 100% [middle of 4 runs] | viability, T/C (compound 1 µM) 96% [middle of 4 runs]

C#Cc1c(F)ccc2cc(O)cc(-c3ncc4c(N5CC6CCC(C5)N6)nc(OCC56CCCN5CC(F)C6)nc4c3F)c12 (stereo unspecified) + CC(Nc1ncnc2nc[nH]c12)c1cc2cccc(Cl)c2c(=O)n1-c1ccccc1
inactive: viability, T/C [1] 90% | viability, T/C [2] 78.4% | viability, T/C [3] 82.8% | viability, T/C [4] 86.4% | viability, T/C [17] 82% | viability, T/C [18] 63.6% | viability, T/C [5] 90.8% | viability, T/C [6] 87% | viability, T/C [7] 90.8% | viability, T/C [8] 97.7% | viability, T/C [19] 82.6% | viability, T/C [20] 64.8% | viability, T/C [9] 96.1% | viability, T/C [10] 92.9% | viability, T/C [11] 90.1% | viability, T/C [12] 87.5% | viability, T/C [21] 73.5% | viability, T/C [22] 65.4% | viability, T/C [13] 83.3% | viability, T/C [14] 75.7% | viability, T/C [15] 88.6% | viability, T/C [16] 78.4% | viability, T/C [23] 88.4% | viability, T/C [24] 66.8% | viability, T/C [25] 84.7% | viability, T/C [26] 67.6% | viability, T/C [27] 73.7% | viability, T/C [28] 75% | viability, T/C [29] 69% | viability, T/C [30] 62.6% | viability, T/C [31] 54.5% | viability, T/C [32] 58.2% | viability, T/C [33] 53.9% | viability, T/C [34] 49.4% | viability, T/C [35] 55.6% | viability, T/C [36] 44.9%
> 10 µM: IC50 (second compound 0.0316 µM) | IC50 (second compound 0.1 µM) | IC50 (second compound 0.316 µM) | IC50 (second compound 1 µM) | IC50 (second compound 3.16 µM)
3.37 µM: IC50 (second compound 10 µM)
